# In patent publication US20020035061A1, “COMPOSITIONS AND METHODS FOR TREATING INFECTIONS USING CATIONIC PEPTIDES ALONE OR IN COMBINATION WITH ANTIBIOTICS” (priority 1996, published 2002):
# Key:
# Experiment in all cases: microbe, parasite or virus in culture
# Type in all cases: cell-based
# [1] = test system: inherently resistant microorganisms; settings: S. aureus MRSA
# [2] = test system: microorganisms with acquired resistance; settings: for Peptide MIC: in µg/mL
# [3] = test system: vancomycin / teicoplanin resistant enterococci; settings: for Peptide MIC Alone: Amikacin section; for FIC: peptide + Amikacin
sequence,measurement,setting,value
KKWWRRALQGLKTAGPAIQSVLNK [MBI 21A2],Peptide MIC + Amikacin,[1],1 µg/mL
same,Peptide MIC + Piperacillin,[1],64 µg/mL
same,Peptide MIC Alone,[1]; Amikacin section,2 µg/mL
same,Peptide MIC Alone,[1]; Piperacillin section,>128 µg/mL
same,FIC,[1]; peptide + Amikacin,0.56
same,FIC,[1]; peptide + Piperacillin,0.25
same,Gentamicin MIC + Peptide,[2]; A. calcoaceticus AC001,4 µg/mL
same,Peptide MIC + Gentamicin,[2]; A. calcoaceticus AC001,8 µg/mL
same,Peptide MIC Alone,"[2]; A. calcoaceticus AC001, Gentamicin section",16 µg/mL
same,Peptide MIC + Piperacillin,[2]; E. coli 1,2 µg/mL
same,Piperacillin MIC + Peptide,[2]; E. coli 1,8 µg/mL
same,Peptide MIC Alone,"[2]; E. coli 1, Piperacillin section",4 µg/mL
same,Peptide MIC + Piperacillin,[2]; H. influenzae 1,64 µg/mL
same,Piperacillin MIC + Peptide,[2]; H. influenzae 1,4 µg/mL
same,Peptide MIC Alone,"[2]; H. influenzae 1, Piperacillin section",>128 µg/mL
same,Peptide MIC + Piperacillin,[2]; H. influenzae 2,64 µg/mL
same,Piperacillin MIC + Peptide,[2]; H. influenzae 2,4 µg/mL
same,Peptide MIC Alone,"[2]; H. influenzae 2, Piperacillin section",>128 µg/mL
same,Amikacin MIC + Peptide,[2]; P. aeruginosa PA022,16 µg/mL
same,Gentamicin MIC + Peptide,[2]; P. aeruginosa PA022,2 µg/mL
same,Peptide MIC + Amikacin,[2]; P. aeruginosa PA022,2 µg/mL
same,Peptide MIC + Gentamicin,[2]; P. aeruginosa PA022,4 µg/mL
same,Peptide MIC Alone,"[2]; P. aeruginosa PA022, Amikacin section",8 µg/mL
same,Peptide MIC Alone,"[2]; P. aeruginosa PA022, Gentamicin section",8 µg/mL
same,Ciprofloxacin MIC + Peptide,[2]; P. aeruginosa PA41,1 µg/mL
same,Peptide MIC + Ciprofloxacin,[2]; P. aeruginosa PA41,16 µg/mL
same,Peptide MIC Alone,"[2]; P. aeruginosa PA41, Ciprofloxacin section",64 µg/mL
same,Ciprofloxacin MIC + Peptide,[2]; P. aeruginosa PA77,0.25 µg/mL
same,Peptide MIC + Ciprofloxacin,[2]; P. aeruginosa PA77,32 µg/mL
same,Peptide MIC Alone,"[2]; P. aeruginosa PA77, Ciprofloxacin section",64 µg/mL
same,Peptide MIC,"[2]; P. aeruginosa, combination with Ciprofloxacin",16
same,Peptide MIC,"[2]; S. aureus, combination with Ciprofloxacin",4
same,Peptide MIC,"[2]; S. aureus, combination with Mupirocin",32
same,Peptide MIC + Piperacillin,[2]; S. maltophilia 3,16 µg/mL
same,Piperacillin MIC + Peptide,[2]; S. maltophilia 3,16 µg/mL
same,Peptide MIC Alone,"[2]; S. maltophilia 3, Piperacillin section",32 µg/mL
same,Peptide MIC + Piperacillin,[2]; S. maltophilia 11,64 µg/mL
same,Piperacillin MIC + Peptide,[2]; S. maltophilia 11,8 µg/mL
same,Peptide MIC Alone,"[2]; S. maltophilia 11, Piperacillin section",128 µg/mL
same,Gentamicin MIC + Peptide,[2]; S. maltophilia SMA020,0.125 µg/mL
same,Peptide MIC + Gentamicin,[2]; S. maltophilia SMA020,8 µg/mL
same,Peptide MIC Alone,"[2]; S. maltophilia SMA020, Gentamicin section",16 µg/mL
same,Gentamicin MIC + Peptide,[2]; S. maltophilia SMA021,0.125 µg/mL
same,Peptide MIC + Gentamicin,[2]; S. maltophilia SMA021,8 µg/mL
same,Peptide MIC Alone,"[2]; S. maltophilia SMA021, Gentamicin section",16 µg/mL
same,Peptide MIC + Piperacillin,[2]; S. marcescens 1,4 µg/mL
same,Piperacillin MIC + Peptide,[2]; S. marcescens 1,16 µg/mL
same,Peptide MIC Alone,"[2]; S. marcescens 1, Piperacillin section",>128 µg/mL
same,FIC,"[2]; peptide + Amikacin, P. aeruginosa PA022",0.50
same,FIC,"[2]; peptide + Ciprofloxacin, P. aeruginosa PA41",0.50
same,FIC,"[2]; peptide + Ciprofloxacin, P. aeruginosa PA77",0.63
same,FIC,"[2]; peptide + Gentamicin, A. calcoaceticus AC001",1.00
same,FIC,"[2]; peptide + Gentamicin, P. aeruginosa PA022",0.56
same,FIC,"[2]; peptide + Gentamicin, S. maltophilia SMA020",0.50
same,FIC,"[2]; peptide + Gentamicin, S. maltophilia SMA021",0.50
same,FIC,"[2]; peptide + Piperacillin, E. coli 1",0.53
same,FIC,"[2]; peptide + Piperacillin, H. influenzae 1",0.31
same,FIC,"[2]; peptide + Piperacillin, H. influenzae 2",0.28
same,FIC,"[2]; peptide + Piperacillin, S. maltophilia 3",0.75
same,FIC,"[2]; peptide + Piperacillin, S. maltophilia 11",0.75
same,FIC,"[2]; peptide + Piperacillin, S. marcescens 1",0.27
same,Amikacin MIC + Peptide,[3]; E. faecalis EFS008,8 µg/mL
same,Peptide MIC + Amikacin,[3]; E. faecalis EFS008,16 µg/mL
same,Peptide MIC Alone,[3]; E. faecalis EFS008,>128 µg/mL
same,Amikacin MIC + Peptide,[3]; E. faecium EFM020,2 µg/mL
same,Peptide MIC + Amikacin,[3]; E. faecium EFM020,64 µg/mL
same,Peptide MIC Alone,[3]; E. faecium EFM020,128 µg/mL
same,FIC,[3]; E. faecalis EFS008,0.19
same,FIC,[3]; E. faecium EFM020,0.56
